Where no end group is shown, it is not given here.
How the values were obtained:
[1] = test system: Human hair follicle dermal papilla cells (HFDPC); assay: Cell proliferation of HFDPC (MTT); assay type: cell-based; conditions: 0.5 μM, 5 μM or 50 μM, serum-free medium, 3 days, FIG. 4
Protocol: (§1) Human hair follicle dermal papilla cells (HFDPC) and HaCaT which is human keratinocyte were dispensed by 2×10^3 in each well of a 96-well plate and cultivated overnight. The medium of the cultivated cells was replaced with a serum-free medium, and treatment with Trolox-peptide conjugates of 0.5 μM, 5 μM or 50 μM were performed, and additional cultivation was performed for 3 days. Then, in order to confirm the proliferation of the cells, 4 mg/ml of 3-(4,5-dimethylthiazol-2-yl)-2,5-diphenyltetrazolium bromide (MTT) was put to the wells by 100 μl each and reacted for 4 hours. Formazan thus produced was treated with DMSO and dissolved, and light absorbance at 560 nm was measured using a microplate reader. In this case, as a positive control, 1 μM of IGF-1 or EGF, which is known as a growth factor promoting the proliferation of HFDPC and HaCaT cells was used, and as a comparison group, single compounds of Trolox and a peptide having the amino acid sequences of SEQ ID NO: 1 to SEQ ID NO: 3, having the same amounts as the Trolox-peptide conjugate of the present invention, were used.

[2] = test system: HaCaT human keratinocyte; assay: Cell proliferation of HaCaT human keratinocyte (MTT); assay type: cell-based; conditions: 0.5 μM, 5 μM or 50 μM, serum-free medium, 3 days, FIG. 5
Protocol: as §1

[3] = test system: Bcl-2; assay: Expression of Bcl-2 protein involving cell death in HFDPC (western blot); assay type: cell-based, human; conditions: 50 μM, 24 hours; FIG. 10
Protocol: (§2) HFDPCs were dispensed by 3×10^5 in each well of a 6-well plate and cultivated overnight. The medium of the cultivated cells was replaced with a serum-free medium, treatment with Trolox of 50 μM, a Trolox-peptide (SEQ ID NO: 2) conjugate of 50 μM, or a Trolox-peptide (SEQ ID NO: 3) conjugate of 50 μM, was performed for each, and additional cultivation was performed for 24 hours. Then, protein expression change was confirmed by performing western blot using a specific antibody to Bcl-2 and Bax proteins (Santacruz biotechnology, USA).

[4] = test system: Bax; assay: Expression of Bax protein involving cell death in HFDPC (western blot); assay type: cell-based, human; conditions: 50 μM, 24 hours; FIG. 10
Protocol: as §2

[5] = test system: P-smad 1/5/8 protein; assay: BMP2 cell signal transduction: P-smad 1/5/8 in HFDPC (western blot); assay type: cell-based, human; conditions: 50 μM, 50 ng/μl BMP-2, 15 minutes; FIG. 13
Protocol: HFDPCs were dispensed by 3×10^5 in each well of a 6-well plate and cultivated overnight. The medium of the cultivated cells was replaced with a serum-free medium, and the experiments below were performed.
The HFDPC cells were treated with 50 ng/μl of BMP-2 and a Trolox-peptide (SEQ ID NO: 1) conjugate of 5 μM or 50 μM, and additionally cultivated for 15 minutes. Then, western blot was performed using a specific […] to a P-smad 1/5/8 protein which is a subprotein of which expression is controlled by BMP2 cell signal transduction (Cell signaling, USA), and the expression change of a protein was confirmed.

Molecule | cell proliferation of HFDPC [1] | cell proliferation of HaCaT [2] | expression of Bcl-2 [3] | expression of Bax [4] | level of expression of the P-smad 1/5/8 protein increased by the treatment with BMP2 [5]
Cc1c(C)c2c(c(C)c1O)CCC(C)(C(=O)O)O2 (centres unmarked) [Trolox, 6-hydroxy-2,5,7,8-tetramethylchromane-2-carboxylic acid] | rarely showed cell proliferation effects | rarely showed cell proliferation effects | no change | increased | –
Trolox-peptide (SEQ ID NO: 1) conjugate: Trolox chemically bonded to the peptide Glu-Leu-Ile-Glu-His-Gly-Gly-Gly-Arg-Pro-Ala-Asp (SEQ ID NO: 1) (ELIEHGGGRPAD; not fully specified (N-terminus); printed as Glu-Leu-Ile-Glu-His-Gly-Gly-Gly-Arg-Pro-Ala-Asp; also: Trolox chemically bonded, site not given here) | – | – | – | – | reduced

— US12589064B2, “Trolox-peptide conjugate and use thereof” (Caregen Co., Ltd., priority 2019, dated 2026)
